In patent US20250115595A1, “INHIBITORS OF HYPOXIA-INDUCIBLE FACTORS” (The Johns Hopkins University, priority 2021, published 2025):

Test system: cytokine mRNAs
Test: RT-qPCR array of mouse cytokines and chemokines in Hepa1-6 tumors
Type: in vivo
Method: Total RNA from Hepa1-6 tumors was analyzed using the RT2 Profiler PCR Array of Mouse Cytokines and Chemokines (Qiagen, catalog number 330231 PAMM-150ZA) according to the manufacturer's instructions.

[1] = array of 84 cytokines and chemokines

Brc1ccc2c(-c3csc(-c4c[nH]c5c(Br)cccc45)n3)c[nH]c2c1 [Compound 32-134D, 4-(6-bromo-1H-indol-3-yl)-2-(7-bromo-1H-indol-3-yl)thiazole]
Mstn mRNA Fold Up- or Down-Regulation Test Group/Control Group (Hepa1-6 tumors, vs vehicle): −4.85 | Mstn mRNA X axis (Log2(fold change)) (Hepa1-6 tumors, vs vehicle): −2.28 | Nodal mRNA Fold Change Test Group/Control Group (Hepa1-6 tumors, vs vehicle): 0.29 | Nodal mRNA Fold Up- or Down-Regulation Test Group/Control Group (Hepa1-6 tumors, vs vehicle): −3.43 | Nodal mRNA X axis (Log2(fold change)) (Hepa1-6 tumors, vs vehicle): −1.78 | Osm mRNA Fold Change Test Group/Control Group (Hepa1-6 tumors, vs vehicle): 0.38 | Osm mRNA Fold Up- or Down-Regulation Test Group/Control Group (Hepa1-6 tumors, vs vehicle): −2.65 | Osm mRNA X axis (Log2(fold change)) (Hepa1-6 tumors, vs vehicle): −1.40 | Pf4 mRNA Fold Change Test Group/Control Group (Hepa1-6 tumors, vs vehicle): 0.68 | Pf4 mRNA Fold Up- or Down-Regulation Test Group/Control Group (Hepa1-6 tumors, vs vehicle): −1.47 | Pf4 mRNA X axis (Log2(fold change)) (Hepa1-6 tumors, vs vehicle): −0.56 | Ppbp mRNA Fold Change Test Group/Control Group (Hepa1-6 tumors, vs vehicle): 0.64 | Ppbp mRNA Fold Up- or Down-Regulation Test Group/Control Group (Hepa1-6 tumors, vs vehicle): −1.56 | Ppbp mRNA X axis (Log2(fold change)) (Hepa1-6 tumors, vs vehicle): −0.65 | Spp1 mRNA Fold Change Test Group/Control Group (Hepa1-6 tumors, vs vehicle): 1.71 | Spp1 mRNA Fold Up- or Down-Regulation Test Group/Control Group (Hepa1-6 tumors, vs vehicle): 1.71 | Spp1 mRNA X axis (Log2(fold change)) (Hepa1-6 tumors, vs vehicle): 0.77 | Tgfb2 mRNA Fold Change Test Group/Control Group (Hepa1-6 tumors, vs vehicle): 0.74 | Tgfb2 mRNA Fold Up- or Down-Regulation Test Group/Control Group (Hepa1-6 tumors, vs vehicle): −1.36 | Tgfb2 mRNA X axis (Log2(fold change)) (Hepa1-6 tumors, vs vehicle): −0.44 | Thpo mRNA Fold Change Test Group/Control Group (Hepa1-6 tumors, vs vehicle): 0.55 | Thpo mRNA Fold Up- or Down-Regulation Test Group/Control Group (Hepa1-6 tumors, vs vehicle): −1.82 | Thpo mRNA X axis (Log2(fold change)) (Hepa1-6 tumors, vs vehicle): −0.87 | Tnf mRNA Fold Change Test Group/Control Group (Hepa1-6 tumors, vs vehicle): 0.25 | Tnf mRNA Fold Up- or Down-Regulation Test Group/Control Group (Hepa1-6 tumors, vs vehicle): −4.00 | Tnf mRNA X axis (Log2(fold change)) (Hepa1-6 tumors, vs vehicle): −2.00 | Tnfrsf11b mRNA Fold Change Test Group/Control Group (Hepa1-6 tumors, vs vehicle): 0.25 | Tnfrsf11b mRNA Fold Up- or Down-Regulation Test Group/Control Group (Hepa1-6 tumors, vs vehicle): −4.07 | Tnfrsf11b mRNA X axis (Log2(fold change)) (Hepa1-6 tumors, vs vehicle): −2.02 | Tnfsf10 mRNA Fold Change Test Group/Control Group (Hepa1-6 tumors, vs vehicle): 1.02 | Tnfsf10 mRNA Fold Up- or Down-Regulation Test Group/Control Group (Hepa1-6 tumors, vs vehicle): 1.02 | Tnfsf10 mRNA X axis (Log2(fold change)) (Hepa1-6 tumors, vs vehicle): 0.03 | Tnfsf11 mRNA Fold Change Test Group/Control Group (Hepa1-6 tumors, vs vehicle): 0.38 | Tnfsf11 mRNA Fold Up- or Down-Regulation Test Group/Control Group (Hepa1-6 tumors, vs vehicle): −2.61 | Tnfsf11 mRNA X axis (Log2(fold change)) (Hepa1-6 tumors, vs vehicle): −1.39 | Tnfsf13b mRNA Fold Change Test Group/Control Group (Hepa1-6 tumors, vs vehicle): 0.88 | Tnfsf13b mRNA Fold Up- or Down-Regulation Test Group/Control Group (Hepa1-6 tumors, vs vehicle): −1.13 | Tnfsf13b mRNA X axis (Log2(fold change)) (Hepa1-6 tumors, vs vehicle): −0.18 | Vegfa mRNA Fold Change Test Group/Control Group (Hepa1-6 tumors, vs vehicle): 0.40 | Vegfa mRNA Fold Up- or Down-Regulation Test Group/Control Group (Hepa1-6 tumors, vs vehicle): −2.52 | Vegfa mRNA X axis (Log2(fold change)) (Hepa1-6 tumors, vs vehicle): −1.33 | Xcl1 mRNA Fold Change Test Group/Control Group (Hepa1-6 tumors, vs vehicle): 1.47 | Xcl1 mRNA Fold Up- or Down-Regulation Test Group/Control Group (Hepa1-6 tumors, vs vehicle): 1.47 | Xcl1 mRNA X axis (Log2(fold change)) (Hepa1-6 tumors, vs vehicle): 0.56 | lfna2 mRNA Fold Change Test Group/Control Group (Hepa1-6 tumors, vs vehicle): 0.26 | lfna2 mRNA Fold Up- or Down-Regulation Test Group/Control Group (Hepa1-6 tumors, vs vehicle): −3.85 | lfna2 mRNA X axis (Log2(fold change)) (Hepa1-6 tumors, vs vehicle): −1.95 | lfng mRNA Fold Change Test Group/Control Group (Hepa1-6 tumors, vs vehicle): 1.63 | lfng mRNA Fold Up- or Down-Regulation Test Group/Control Group (Hepa1-6 tumors, vs vehicle): 1.63 | lfng mRNA X axis (Log2(fold change)) (Hepa1-6 tumors, vs vehicle): 0.70 | ll1a mRNA Fold Change Test Group/Control Group (Hepa1-6 tumors, vs vehicle): 0.68 | ll1a mRNA Fold Up- or Down-Regulation Test Group/Control Group (Hepa1-6 tumors, vs vehicle): −1.47 | ll1a mRNA X axis (Log2(fold change)) (Hepa1-6 tumors, vs vehicle): −0.56 | ll1b mRNA Fold Change Test Group/Control Group (Hepa1-6 tumors, vs vehicle): 0.34 | ll1b mRNA Fold Up- or Down-Regulation Test Group/Control Group (Hepa1-6 tumors, vs vehicle): −2.92 | ll1b mRNA X axis (Log2(fold change)) (Hepa1-6 tumors, vs vehicle): −1.55 | ll1rn mRNA Fold Change Test Group/Control Group (Hepa1-6 tumors, vs vehicle): 0.68 | ll1rn mRNA Fold Up- or Down-Regulation Test Group/Control Group (Hepa1-6 tumors, vs vehicle): −1.47 | ll1rn mRNA X axis (Log2(fold change)) (Hepa1-6 tumors, vs vehicle): −0.56 | ll2 mRNA Fold Change Test Group/Control Group (Hepa1-6 tumors, vs vehicle): 0.30 | ll2 mRNA Fold Up- or Down-Regulation Test Group/Control Group (Hepa1-6 tumors, vs vehicle): −3.37 | ll2 mRNA X axis (Log2(fold change)) (Hepa1-6 tumors, vs vehicle): −1.75 | ll3 mRNA Fold Change Test Group/Control Group (Hepa1-6 tumors, vs vehicle): 0.36 | ll3 mRNA Fold Up- or Down-Regulation Test Group/Control Group (Hepa1-6 tumors, vs vehicle): −2.77 | ll3 mRNA X axis (Log2(fold change)) (Hepa1-6 tumors, vs vehicle): −1.47 | ll4 mRNA Fold Change Test Group/Control Group (Hepa1-6 tumors, vs vehicle): 0.34 | ll4 mRNA Fold Up- or Down-Regulation Test Group/Control Group (Hepa1-6 tumors, vs vehicle): −2.91 | ll4 mRNA X axis (Log2(fold change)) (Hepa1-6 tumors, vs vehicle): −1.54 | ll5 mRNA Fold Change Test Group/Control Group (Hepa1-6 tumors, vs vehicle): 0.42 | ll5 mRNA Fold Up- or Down-Regulation Test Group/Control Group (Hepa1-6 tumors, vs vehicle): −2.39 | ll5 mRNA X axis (Log2(fold change)) (Hepa1-6 tumors, vs vehicle): −1.26 | ll6 mRNA Fold Change Test Group/Control Group (Hepa1-6 tumors, vs vehicle): 0.34 | ll6 mRNA Fold Up- or Down-Regulation Test Group/Control Group (Hepa1-6 tumors, vs vehicle): −2.95 | ll6 mRNA X axis (Log2(fold change)) (Hepa1-6 tumors, vs vehicle): −1.56 | ll7 mRNA Fold Change Test Group/Control Group (Hepa1-6 tumors, vs vehicle): 0.97 | ll7 mRNA Fold Up- or Down-Regulation Test Group/Control Group (Hepa1-6 tumors, vs vehicle): −1.04 | ll7 mRNA X axis (Log2(fold change)) (Hepa1-6 tumors, vs vehicle): −0.05 | ll9 mRNA Fold Change Test Group/Control Group (Hepa1-6 tumors, vs vehicle): 0.27 | ll9 mRNA Fold Up- or Down-Regulation Test Group/Control Group (Hepa1-6 tumors, vs vehicle): −3.69 | ll9 mRNA X axis (Log2(fold change)) (Hepa1-6 tumors, vs vehicle): −1.88 | ll10 mRNA Fold Change Test Group/Control Group (Hepa1-6 tumors, vs vehicle): 0.23 | ll10 mRNA Fold Up- or Down-Regulation Test Group/Control Group (Hepa1-6 tumors, vs vehicle): −4.42 | ll10 mRNA X axis (Log2(fold change)) (Hepa1-6 tumors, vs vehicle): −2.14 | ll11 mRNA Fold Change Test Group/Control Group (Hepa1-6 tumors, vs vehicle): 0.24 | ll11 mRNA Fold Up- or Down-Regulation Test Group/Control Group (Hepa1-6 tumors, vs vehicle): −4.12 | ll11 mRNA X axis (Log2(fold change)) (Hepa1-6 tumors, vs vehicle): −2.04 | ll12a mRNA Fold Change Test Group/Control Group (Hepa1-6 tumors, vs vehicle): 0.48 | ll12a mRNA Fold Up- or Down-Regulation Test Group/Control Group (Hepa1-6 tumors, vs vehicle): −2.07 | ll12a mRNA X axis (Log2(fold change)) (Hepa1-6 tumors, vs vehicle): −1.05 | ll12b mRNA Fold Change Test Group/Control Group (Hepa1-6 tumors, vs vehicle): 0.29 | ll12b mRNA Fold Up- or Down-Regulation Test Group/Control Group (Hepa1-6 tumors, vs vehicle): −3.51 | ll12b mRNA X axis (Log2(fold change)) (Hepa1-6 tumors, vs vehicle): −1.81 | ll13 mRNA Fold Change Test Group/Control Group (Hepa1-6 tumors, vs vehicle): 0.32 | ll13 mRNA Fold Up- or Down-Regulation Test Group/Control Group (Hepa1-6 tumors, vs vehicle): −3.14 | ll13 mRNA X axis (Log2(fold change)) (Hepa1-6 tumors, vs vehicle): −1.65 | ll15 mRNA Fold Change Test Group/Control Group (Hepa1-6 tumors, vs vehicle): 0.84 | ll15 mRNA Fold Up- or Down-Regulation Test Group/Control Group (Hepa1-6 tumors, vs vehicle): 1.19 | ll15 mRNA X axis (Log2(fold change)) (Hepa1-6 tumors, vs vehicle): −0.25 | ll16 mRNA Fold Change Test Group/Control Group (Hepa1-6 tumors, vs vehicle): 0.53 | ll16 mRNA Fold Up- or Down-Regulation Test Group/Control Group (Hepa1-6 tumors, vs vehicle): −1.90 | ll16 mRNA X axis (Log2(fold change)) (Hepa1-6 tumors, vs vehicle): −0.93 | ll17a mRNA Fold Change Test Group/Control Group (Hepa1-6 tumors, vs vehicle): 0.33 | ll17a mRNA Fold Up- or Down-Regulation Test Group/Control Group (Hepa1-6 tumors, vs vehicle): −3.00 | ll17a mRNA X axis (Log2(fold change)) (Hepa1-6 tumors, vs vehicle): −1.59 | ll17f mRNA Fold Change Test Group/Control Group (Hepa1-6 tumors, vs vehicle): 0.75 | ll17f mRNA Fold Up- or Down-Regulation Test Group/Control Group (Hepa1-6 tumors, vs vehicle): −1.33 | ll17f mRNA X axis (Log2(fold change)) (Hepa1-6 tumors, vs vehicle): −0.41 | ll18 mRNA Fold Change Test Group/Control Group (Hepa1-6 tumors, vs vehicle): 0.89 | ll18 mRNA Fold Up- or Down-Regulation Test Group/Control Group (Hepa1-6 tumors, vs vehicle): −1.13 | ll18 mRNA X axis (Log2(fold change)) (Hepa1-6 tumors, vs vehicle): −0.17 | ll21 mRNA Fold Change Test Group/Control Group (Hepa1-6 tumors, vs vehicle): 0.29 | ll21 mRNA Fold Up- or Down-Regulation Test Group/Control Group (Hepa1-6 tumors, vs vehicle): −3.46 | ll21 mRNA X axis (Log2(fold change)) (Hepa1-6 tumors, vs vehicle): −1.79 | ll22 mRNA Fold Change Test Group/Control Group (Hepa1-6 tumors, vs vehicle): 0.37 | ll22 mRNA Fold Up- or Down-Regulation Test Group/Control Group (Hepa1-6 tumors, vs vehicle): −2.67 | ll22 mRNA X axis (Log2(fold change)) (Hepa1-6 tumors, vs vehicle): −1.42 | ll23a mRNA Fold Change Test Group/Control Group (Hepa1-6 tumors, vs vehicle): 0.44 | ll23a mRNA Fold Up- or Down-Regulation Test Group/Control Group (Hepa1-6 tumors, vs vehicle): −2.25 | ll23a mRNA X axis (Log2(fold change)) (Hepa1-6 tumors, vs vehicle): −1.17 | ll24 mRNA Fold Change Test Group/Control Group (Hepa1-6 tumors, vs vehicle): 0.43 | ll24 mRNA Fold Up- or Down-Regulation Test Group/Control Group (Hepa1-6 tumors, vs vehicle): −2.34 | ll24 mRNA X axis (Log2(fold change)) (Hepa1-6 tumors, vs vehicle): −1.23 | ll27 mRNA Fold Change Test Group/Control Group (Hepa1-6 tumors, vs vehicle): 0.46 | ll27 mRNA Fold Up- or Down-Regulation Test Group/Control Group (Hepa1-6 tumors, vs vehicle): −2.19 | ll27 mRNA X axis (Log2(fold change)) (Hepa1-6 tumors, vs vehicle): −1.13 | number of mRNAs with decreased expression [1]: 40 mRNAs | number of mRNAs with increased expression [1]: 5 mRNAs
